According to ChEMBL document CHEMBL1201861, “Genomics of Drug Sensitity in Cancer screening data, Wellcome Trust Sanger Institute”:

Tests used:
Assay type in all cases: functional, cell-based
NCI-H1436 = assay: cells; settings: Homo sapiens;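 further: growth suppression of human NCI-H1436 cells, determined with a cell viability readout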
Description: SANGER: Inhibition of human NCI-H1436 cell growth in a cell viability assay.

BC1 cell line = assay: SANGER: Inhibition of human BC-1 cell growth in a cell viability assay.
REH = assay: cells; settings: Homo sapiens;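 further: growth inhibition of REH cells determined with a cell viability read-out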
Description: SANGER: Inhibition of human REH cell growth in a cell viability assay.

UACC-812 = assay: cells; settings: Homo sapiens
Description: SANGER: Inhibition of human UACC-812 cell growth in a cell viability assay.

NCI-H1694 = assay: cells; settings: Homo sapiens;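 further: cell viability assay measuring inhibition of growth in human NCI-H1694 cells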
Description: SANGER: Inhibition of human NCI-H1694 cell growth in a cell viability assay.

HCC 2998 = assay: cells; settings: Homo sapiens;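 further: growth inhibition of human HCC2998 cells, measured with a cell viability read-out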
Description: SANGER: Inhibition of human HCC2998 cell growth in a cell viability assay.

PF-382 = assay: cells; settings: Homo sapiens
Description: SANGER: Inhibition of human PF-382 cell growth in a cell viability assay.

LB647-SCLC = assay: cells; settings: Homo sapiens;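 further: cell growth inhibition, read out by a viability assay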
Description: SANGER: Inhibition of human LB647-SCLC cell growth in a cell viability assay.

JIYOYE = assay: cells; settings: Homo sapiens
Description: SANGER: Inhibition of human JiyoyeP-2003 cell growth in a cell viability assay.

YT = assay: cells; settings: Homo sapiens
Description: SANGER: Inhibition of human YT cell growth in a cell viability assay.

TE-15 = assay: cells; settings: Homo sapiens;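 further: cell viability readout of growth inhibition in TE-15 cells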
Description: SANGER: Inhibition of human TE-15 cell growth in a cell viability assay.

RL = assay: cells; settings: Homo sapiens
Description: SANGER: Inhibition of human RL cell growth in a cell viability assay.

BL-41 = assay: cells; settings: Homo sapiens;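 further: growth inhibition of human BL-41 cells, read out with a cell viability assay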
Description: SANGER: Inhibition of human BL-41 cell growth in a cell viability assay.

Raji = assay: cells; settings: Homo sapiens;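 further: cell viability assay measuring inhibition of Raji cell growth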
Description: SANGER: Inhibition of human Raji cell growth in a cell viability assay.

CA46 = assay: cells; settings: Homo sapiens;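 further: growth inhibition of human CA46 cells, read out by a cell viability assay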
Description: SANGER: Inhibition of human CA46 cell growth in a cell viability assay.

LC-1F = assay: cells; settings: Homo sapiens;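 further: growth inhibition of human LC-1F cells, read out with a cell viability assay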
Description: SANGER: Inhibition of human LC-1F cell growth in a cell viability assay.

MRK-nu-1 = assay: cells; settings: Homo sapiens;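 further: cell viability assay measuring growth suppression of human MRK-nu-1 cells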
Description: SANGER: Inhibition of human MRK-nu-1 cell growth in a cell viability assay.

IMR-5 = assay: cells; settings: Homo sapiens;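 further: growth inhibition of human IMR-5 cells, read out with a cell viability assay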
Description: SANGER: Inhibition of human IMR-5 cell growth in a cell viability assay.

NCI-H2171 = assay: cells; settings: Homo sapiens;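 further: growth inhibition of human NCI-H2171 cells, read out by a cell viability assay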
Description: SANGER: Inhibition of human NCI-H2171 cell growth in a cell viability assay.

HCC2157 = assay: cells; settings: Homo sapiens;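 further: growth inhibition of the cancer cell line, read out as cell viability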
Description: SANGER: Inhibition of human HCC2157 cell growth in a cell viability assay.

NB14 = assay: cells; settings: Homo sapiens;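 further: growth inhibition of NB14 cells measured with a cell viability assay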
Description: SANGER: Inhibition of human NB14 cell growth in a cell viability assay.

NCI-H1522 = assay: cells; settings: Homo sapiens;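 further: growth inhibition of NCI-H1522 cells, read out with a cell viability assay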
Description: SANGER: Inhibition of human NCI-H1522 cell growth in a cell viability assay.

HCC1599 = assay: cells; settings: Homo sapiens;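 further: growth inhibition of HCC1599 cells, read out in a cell viability assay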
Description: SANGER: Inhibition of human HCC1599 cell growth in a cell viability assay.

UACC-893 = assay: cells; settings: Homo sapiens
Description: SANGER: Inhibition of human UACC-893 cell growth in a cell viability assay.

SCC-25 = assay: cells; settings: Homo sapiens;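 further: growth inhibition of SCC-25 cells, measured with a cell viability assay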
Description: SANGER: Inhibition of human SCC-25 cell growth in a cell viability assay.

A2058 = assay: cells; settings: Homo sapiens;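 further: reduction of A2058 cell growth, read out with a viability assay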
Description: SANGER: Inhibition of human A2058 cell growth in a cell viability assay.

HMV-2 cell line = assay: cells; settings: Homo sapiens;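 further: growth inhibition of HMV-II cells, read out with a cell viability assay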
Description: SANGER: Inhibition of human HMV-II cell growth in a cell viability assay.

SiHa = assay: cells; settings: Homo sapiens;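 further: Viability-based readout of growth inhibition in SiHa cells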
Description: SANGER: Inhibition of human SiHa cell growth in a cell viability assay.

NCI-H1703 = assay: cells; settings: Homo sapiens;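 further: growth inhibition of NCI-H1703 cells, read out via a cell viability assay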
Description: SANGER: Inhibition of human NCI-H1703 cell growth in a cell viability assay.

AGS = assay: cells; settings: Homo sapiens;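 further: growth inhibition of AGS cells, determined with a cell viability assay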
Description: SANGER: Inhibition of human AGS cell growth in a cell viability assay.

786-0 = assay: cells; settings: Homo sapiens
Description: SANGER: Inhibition of human 786-0 cell growth in a cell viability assay.

NCI-H650 = assay: cells; settings: Homo sapiens;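 further: growth inhibition of NCI-H650 cells, read out by a viability assay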
Description: SANGER: Inhibition of human NCI-H650 cell growth in a cell viability assay.

PFSK-1 = assay: cells; settings: Homo sapiens;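 further: cell viability assay measuring how strongly compounds suppress growth of human PFSK-1 cells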
Description: SANGER: Inhibition of human PFSK-1 cell growth in a cell viability assay.

C-33-A = assay: cells; settings: Homo sapiens;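 further: cell viability assay measuring growth inhibition of C-33-A cells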
Description: SANGER: Inhibition of human C-33-A cell growth in a cell viability assay.

BCPAP = assay: cells; settings: Homo sapiens;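 further: growth inhibition of BCPAP cells, read out in a cell viability assay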
Description: SANGER: Inhibition of human BCPAP cell growth in a cell viability assay.

EGI-1 = assay: cells; settings: Homo sapiens;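 further: cell viability readout used to gauge growth inhibition of EGI-1 cells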
Description: SANGER: Inhibition of human EGI-1 cell growth in a cell viability assay.

Hs-578T = assay: cells; settings: Homo sapiens
Description: SANGER: Inhibition of human Hs-578-T cell growth in a cell viability assay.

HLE = assay: cells; settings: Homo sapiens;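 further: growth inhibition of human HLE cells, read out by a cell viability assay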
Description: SANGER: Inhibition of human HLE cell growth in a cell viability assay.

HSC-4 = assay: cells; settings: Homo sapiens;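 further: growth inhibition of human HSC-4 cells, read out with a cell viability assay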
Description: SANGER: Inhibition of human HSC-4 cell growth in a cell viability assay.

HCC38 = assay: cells; settings: Homo sapiens;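 further: cell viability assay on the human HCC38 cell line, with IC50 marking the concentration that inhibits cell growth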
Description: SANGER: Inhibition of human HCC38 cell growth in a cell viability assay.

SW1990 = assay: cells; settings: Homo sapiens
Description: SANGER: Inhibition of human SW1990 cell growth in a cell viability assay.

DMS-273 = assay: cells; settings: Homo sapiens
Description: SANGER: Inhibition of human DMS-273 cell growth in a cell viability assay.

SK-MEL-30 = assay: cells; settings: Homo sapiens;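 further: growth inhibition of SK-MEL-30 cells, determined with a cell viability assay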
Description: SANGER: Inhibition of human SK-MEL-30 cell growth in a cell viability assay.

NCI-H2405 = assay: cells; settings: Homo sapiens;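 further: growth inhibition of the human cell line, read out with a cell viability assay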
Description: SANGER: Inhibition of human NCI-H2405 cell growth in a cell viability assay.

SJRH30 = assay: cells; settings: Homo sapiens;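 further: growth inhibition of human SJRH30 cells, read out with a cell viability assay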
Description: SANGER: Inhibition of human SJRH30 cell growth in a cell viability assay.

A2780 = assay: cells; settings: Homo sapiens;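 further: growth inhibition of A2780 cells, read out with a cell viability assay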
Description: SANGER: Inhibition of human A2780 cell growth in a cell viability assay.

MC-IXC = assay: cells; settings: Homo sapiens;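 further: growth inhibition of MC-IXC cells, read out with a cell viability assay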
Description: SANGER: Inhibition of human MC-IXC cell growth in a cell viability assay.

HCC1569 = assay: cells; settings: Homo sapiens;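 further: growth inhibition of human HCC1569 cells, read out with a cell viability assay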
Description: SANGER: Inhibition of human HCC1569 cell growth in a cell viability assay.

WM-115 = assay: cells; settings: Homo sapiens
Description: SANGER: Inhibition of human WM-115 cell growth in a cell viability assay.

HSC-2 = assay: cells; settings: Homo sapiens;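 further: growth inhibition of human HSC-2 cells, read out by a cell viability assay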
Description: SANGER: Inhibition of human HSC-2 cell growth in a cell viability assay.

U-118-MG = assay: cells; settings: Homo sapiens
Description: SANGER: Inhibition of human U-118-MG cell growth in a cell viability assay.

NCI-H2228 = assay: cells; settings: Homo sapiens;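 further: growth inhibition of human NCI-H2228 cells, read out by a cell viability assay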
Description: SANGER: Inhibition of human NCI-H2228 cell growth in a cell viability assay.

CAL-39 = assay: cells; settings: Homo sapiens;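 further: cell viability assay measuring growth inhibition of CAL-39 cells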
Description: SANGER: Inhibition of human CAL-39 cell growth in a cell viability assay.

DoTc2-4510 = assay: cells; settings: Homo sapiens
NCI-H2347 = assay: cells; settings: Homo sapiens;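 further: growth inhibition of the cell line, read out with a cell viability assay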
Description: SANGER: Inhibition of human NCI-H2347 cell growth in a cell viability assay.

A-427 = assay: cells; settings: Homo sapiens;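 further: growth inhibition of human A-427 cells, read out by a cell viability assay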
Description: SANGER: Inhibition of human A427 cell growth in a cell viability assay.

Ca9-22 = assay: cells; settings: Homo sapiens;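 further: growth inhibition of Ca9-22 cells, read out with a cell viability assay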
Description: SANGER: Inhibition of human Ca9-22 cell growth in a cell viability assay.

BEN = assay: cells; settings: Homo sapiens;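 further: growth inhibition of the BEN cell line, read out with a cell viability assay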
Description: SANGER: Inhibition of human BEN cell growth in a cell viability assay.

SW48 = assay: cells; settings: Homo sapiens;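 further: growth inhibition of SW48 cells, read out with a cell viability assay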
Description: SANGER: Inhibition of human SW48 cell growth in a cell viability assay.

DBTRG-05MG = assay: cells; settings: Homo sapiens;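 further: cell viability assay measuring growth inhibition of human DBTRG-05MG cells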
Description: SANGER: Inhibition of human DBTRG-05MG cell growth in a cell viability assay.

NCI-H28 = assay: cells; settings: Homo sapiens;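 further: growth inhibition of human NCI-H28 cells, read out as cell viability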
Description: SANGER: Inhibition of human NCI-H28 cell growth in a cell viability assay.

BT-20 = assay: cells; settings: Homo sapiens;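 further: cell viability assay measuring suppression of growth in human BT-20 cells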
Description: SANGER: Inhibition of human BT-20 cell growth in a cell viability assay.

ACHN = assay: cells; settings: Homo sapiens
Description: SANGER: Inhibition of human ACHN cell growth in a cell viability assay.

ESS-1 = assay: cells; settings: Homo sapiens
Description: SANGER: Inhibition of human ESS-1 cell growth in a cell viability assay.

HuO9 = assay: cells; settings: Homo sapiens
Description: SANGER: Inhibition of human HuO9 cell growth in a cell viability assay.

CCn1c(-c2nonc2N)nc2cnc(Oc3cccc(NC(=O)c4ccc(OCCN5CCOCC5)cc4)c3)cc21 [GSK-269962A]
IC50 (NCI-H1436): > 2500 nM | IC50 (BC1 cell line): > 2500 nM | IC50 (REH): > 2500 nM | IC50 (UACC-812): > 2500 nM | IC50 (NCI-H1694): > 2500 nM | IC50 (HCC 2998): > 2500 nM | IC50 (PF-382): > 2500 nM | IC50 (LB647-SCLC): > 2500 nM | IC50 (JIYOYE): > 2500 nM | IC50 (YT): > 2500 nM | IC50 (TE-15): > 2500 nM | IC50 (RL): > 2500 nM | IC50 (BL-41): > 2500 nM | IC50 (Raji): > 2500 nM | IC50 (CA46): > 2500 nM | IC50 (LC-1F): > 2500 nM | IC50 (MRK-nu-1): 576 nM | IC50 (IMR-5): > 2500 nM | IC50 (NCI-H2171): 959 nM | IC50 (HCC2157): > 2500 nM | IC50 (NB14): > 2500 nM | IC50 (NCI-H1522): > 2500 nM | IC50 (HCC1599): > 2500 nM

CC[C@]1(O)C[C@@H]2CN(CCc3c([nH]c4ccccc34)[C@@](C(=O)OC)(c3cc4c(cc3OC)N(C)[C@H]3[C@@](O)(C(=O)OC)[C@H](OC(C)=O)[C@]5(CC)C=CCN6CC[C@]43[C@@H]65)C2)C1 [VINBLASTINE]
IC50 (UACC-893): 98.3 nM | IC50 (SCC-25): 15.7 nM | IC50 (A2058): 1.22 nM | IC50 (HMV-2 cell line): 3.9 nM | IC50 (SiHa): > 100 nM | IC50 (NCI-H1703): 1.43 nM | IC50 (AGS): 12.3 nM | IC50 (786-0): 15.6 nM | IC50 (NCI-H650): 27.1 nM | IC50 (PFSK-1): 4.97 nM | IC50 (HCC 2998): 19.8 nM | IC50 (C-33-A): 12.7 nM | IC50 (BCPAP): 2.33 nM | IC50 (EGI-1): 10.8 nM | IC50 (Hs-578T): 17.3 nM | IC50 (HLE): 4.23 nM | IC50 (HSC-4): 2.36 nM | IC50 (HCC38): 58.4 nM | IC50 (SW1990): 61.4 nM | IC50 (DMS-273): 3.4 nM | IC50 (SK-MEL-30): > 100 nM | IC50 (NCI-H2405): > 100 nM | IC50 (SJRH30): 59.4 nM | IC50 (A2780): 4.61 nM | IC50 (MC-IXC): 2.99 nM | IC50 (HCC1569): 92.3 nM | IC50 (WM-115): 10.2 nM | IC50 (HSC-2): 20.2 nM | IC50 (U-118-MG): 45.2 nM | IC50 (NCI-H2228): 41.1 nM | IC50 (CAL-39): 5.11 nM | IC50 (DoTc2-4510): 16.5 nM | IC50 (NCI-H2347): > 100 nM | IC50 (A-427): 12.5 nM | IC50 (Ca9-22): 6.39 nM | IC50 (BEN): 81.2 nM | IC50 (SW48): 6.94 nM | IC50 (DBTRG-05MG): > 100 nM | IC50 (NCI-H28): 34.3 nM | IC50 (BT-20): 37.7 nM | IC50 (ACHN): 59 nM | IC50 (ESS-1): 4.88 nM | IC50 (NB14): 4.95 nM | IC50 (HuO9): 12.6 nM

Cc1ccc(NC(=O)c2cccc(C(C)(C)C#N)c2)cc1Nc1ccc2ncn(C)c(=O)c2c1
IC50 (NCI-H1436): > 4000 nM | IC50 (BC1 cell line): > 4000 nM | IC50 (REH): > 4000 nM | IC50 (UACC-812): > 4000 nM | IC50 (NCI-H1694): > 4000 nM | IC50 (HCC 2998): 222 nM | IC50 (PF-382): 3050 nM | IC50 (LB647-SCLC): > 4000 nM | IC50 (JIYOYE): > 4000 nM | IC50 (YT): > 4000 nM | IC50 (TE-15): > 4000 nM | IC50 (RL): > 4000 nM | IC50 (BL-41): > 4000 nM | IC50 (Raji): > 4000 nM | IC50 (CA46): > 4000 nM | IC50 (LC-1F): 3300 nM | IC50 (MRK-nu-1): > 4000 nM | IC50 (IMR-5): > 4000 nM | IC50 (NCI-H2171): > 4000 nM | IC50 (HCC2157): > 4000 nM | IC50 (NB14): 493 nM | IC50 (NCI-H1522): > 4000 nM | IC50 (HCC1599): > 4000 nM
